PubChem BioAssay AID1745844 (Carcinogenic Potency Database (CPDB), 2022)
Active and inactive are the calls of the source. No rule for the calls is given here.

Test system: rodent lifetime carcinogenesis bioassay, tumor incidence TD50
Assay: chronic cancer bioassays in animals – CPDB, compiled studies (AID 1745844)
[1] = mouse, strain B6C3F1, females, by gavage, site: any site (literature study), lesion: several types, types named in the paper, dosed 104 weeks, study length 104 weeks
[2] = mouse, strain B6C3F1, males, by gavage, site: any site (literature study), lesion: several types, types named in the paper, dosed 104 weeks, study length 104 weeks

## CCN=[N+](C)[O-]
rat, strain Fischer 344, males, in drinking water, site: kidney, lesion: several types, types named in the paper, dosed 30 weeks, study length 95 weeks
  TD50: 123 mg/kg/day
rat, strain Fischer 344, males, in drinking water, site: liver, lesion: hemangiosarcoma, dosed 30 weeks, study length 95 weeks
  TD50: 302 mg/kg/day
rat, strain Fischer 344, males, in drinking water, site: liver, lesion: hepatocellular carcinoma, dosed 30 weeks, study length 95 weeks
  TD50: 18.2 mg/kg/day
rat, strain Fischer 344, males, in drinking water, site: liver, lesion: neoplastic nodule, dosed 30 weeks, study length 95 weeks
  TD50: 664 mg/kg/day
rat, strain Fischer 344, males, in drinking water, site: liver, lesion: several types, types named in the paper, dosed 30 weeks, study length 95 weeks
  TD50: 11.5 mg/kg/day

## CCOC(=O)[C@H](CCc1ccccc1)N[C@@H](C)C(=O)N1Cc2ccccc2C[C@H]1C(=O)O
[1]
  TD50: 8160 mg/kg/day (inactive)
mouse, strain B6C3F1, females, by gavage, site: liver, lesion: hepatocellular adenoma, dosed 104 weeks, study length 104 weeks
  carcinogen call: negative (inactive)
mouse, strain B6C3F1, females, by gavage, site: liver, lesion: hepatocellular carcinoma, dosed 104 weeks, study length 104 weeks
  TD50: 966 mg/kg/day (inactive)
mouse, strain B6C3F1, females, by gavage, site: lung, lesion: adenoma, dosed 104 weeks, study length 104 weeks
  TD50: 5070 mg/kg/day (inactive)
mouse, strain B6C3F1, females, by gavage, site: pituitary gland, lesion: adenoma, dosed 104 weeks, study length 104 weeks
  TD50: 128 mg/kg/day (inactive)
[2]
  TD50: 221 mg/kg/day (inactive)
mouse, strain B6C3F1, males, by gavage, site: liver, lesion: hepatocellular adenoma, dosed 104 weeks, study length 104 weeks
  TD50: 623 mg/kg/day (inactive)
mouse, strain B6C3F1, males, by gavage, site: liver, lesion: hepatocellular carcinoma, dosed 104 weeks, study length 104 weeks
  TD50: 1640 mg/kg/day (inactive)
mouse, strain B6C3F1, males, by gavage, site: lung, lesion: adenoma, dosed 104 weeks, study length 104 weeks
  TD50: 2790 mg/kg/day (inactive)
mouse, strain B6C3F1, males, by gavage, site: lung, lesion: carcinoma, dosed 104 weeks, study length 104 weeks
  TD50: 2810 mg/kg/day (inactive)
rat, strain Wistar, females, by gavage, site: any site (literature study), lesion: several types, types named in the paper, dosed 104 weeks, study length 104 weeks
  carcinogen call: negative (inactive)
rat, strain Wistar, females, by gavage, site: liver, lesion: several types, types named in the paper, dosed 104 weeks, study length 104 weeks
  carcinogen call: negative (inactive)
rat, strain Wistar, males, by gavage, site: any site (literature study), lesion: several types, types named in the paper, dosed 104 weeks, study length 104 weeks
  carcinogen call: negative (inactive)
rat, strain Wistar, males, by gavage, site: liver, lesion: several types, types named in the paper, dosed 104 weeks, study length 104 weeks
  carcinogen call: negative (inactive)

## Oc1cccc(O)c1
[1]
  TD50: 1880 mg/kg/day (inactive)
mouse, strain B6C3F1, females, by gavage, site: liver, lesion: hepatocellular adenoma + hepatocellular carcinoma + neoplastic nodule, dosed 104 weeks, study length 104 weeks
  TD50: 1560 mg/kg/day
mouse, strain B6C3F1, females, by gavage, site: lung, lesion: alveolar/bronchiolar adenoma + alveolar/bronchiolar carcinoma, dosed 104 weeks, study length 104 weeks
  TD50: 1350 mg/kg/day
[2]
  carcinogen call: negative (inactive)
mouse, strain B6C3F1, males, by gavage, site: lung, lesion: alveolar/bronchiolar adenoma + alveolar/bronchiolar carcinoma, dosed 104 weeks, study length 104 weeks
  TD50: 6800 mg/kg/day
rat, strain Fischer 344, females, by gavage, site: any site (literature study), lesion: several types, types named in the paper, dosed 103 weeks, study length 104 weeks
  TD50: 219 mg/kg/day (inactive)
rat, strain Fischer 344, males, by gavage, site: any site (literature study), lesion: several types, types named in the paper, dosed 103 weeks, study length 104 weeks
  TD50: 213 mg/kg/day
rat, strain Fischer 344, males, by gavage, site: testis, lesion: interstitial-cell adenoma, dosed 103 weeks, study length 104 weeks
  TD50: 84 mg/kg/day (inactive)
